The text below walks through data of ChEMBL document CHEMBL3632483, “Synthesis and pharmacological evaluation of piperidine (piperazine)-substituted benzoxazole derivatives as multi-target antipsychotics” (Bioorg Med Chem Lett, 2015).

Molecules are shown by their SMILES.

Data set [1] concerns the target T1, 5-hydroxytryptamine receptor 1A (Rattus norvegicus, UniProt P19327).
T1 sequence (P19327 whole entry): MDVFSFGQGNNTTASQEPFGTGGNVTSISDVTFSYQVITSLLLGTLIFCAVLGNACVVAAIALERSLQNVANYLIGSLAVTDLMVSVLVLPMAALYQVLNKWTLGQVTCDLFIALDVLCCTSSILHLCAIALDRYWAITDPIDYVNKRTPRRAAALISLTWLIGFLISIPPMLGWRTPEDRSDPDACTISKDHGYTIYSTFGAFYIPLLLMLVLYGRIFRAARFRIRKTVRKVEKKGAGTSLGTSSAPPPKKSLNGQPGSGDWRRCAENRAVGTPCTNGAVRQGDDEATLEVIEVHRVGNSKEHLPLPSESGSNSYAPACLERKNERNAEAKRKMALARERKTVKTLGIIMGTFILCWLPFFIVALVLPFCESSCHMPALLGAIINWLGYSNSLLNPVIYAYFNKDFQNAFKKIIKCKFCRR
Put plainly: Displacement of [3H]8-OH-DPAT from 5-HT1A receptor in rat cerebral cortex homogenates after 60 mins by liquid scintillation counting. The format is tissue-based.

Data set [2] deals with T2, Adrenergic receptor alpha-2 (Rattus norvegicus, UniProt P22086+P19328+P22909).
T2 sequence (P22086 whole entry): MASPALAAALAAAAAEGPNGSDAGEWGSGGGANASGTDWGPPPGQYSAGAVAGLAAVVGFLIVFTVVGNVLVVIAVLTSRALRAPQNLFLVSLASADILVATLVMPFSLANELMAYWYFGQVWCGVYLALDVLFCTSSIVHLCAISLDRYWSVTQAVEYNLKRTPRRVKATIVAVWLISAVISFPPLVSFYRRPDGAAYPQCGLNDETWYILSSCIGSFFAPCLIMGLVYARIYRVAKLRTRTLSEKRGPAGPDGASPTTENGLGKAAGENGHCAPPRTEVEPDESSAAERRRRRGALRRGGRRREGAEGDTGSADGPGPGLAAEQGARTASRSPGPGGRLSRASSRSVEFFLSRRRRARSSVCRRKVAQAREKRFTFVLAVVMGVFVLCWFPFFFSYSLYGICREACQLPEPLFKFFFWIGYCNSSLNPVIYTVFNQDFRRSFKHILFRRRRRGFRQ
T2 sequence (P19328 whole entry): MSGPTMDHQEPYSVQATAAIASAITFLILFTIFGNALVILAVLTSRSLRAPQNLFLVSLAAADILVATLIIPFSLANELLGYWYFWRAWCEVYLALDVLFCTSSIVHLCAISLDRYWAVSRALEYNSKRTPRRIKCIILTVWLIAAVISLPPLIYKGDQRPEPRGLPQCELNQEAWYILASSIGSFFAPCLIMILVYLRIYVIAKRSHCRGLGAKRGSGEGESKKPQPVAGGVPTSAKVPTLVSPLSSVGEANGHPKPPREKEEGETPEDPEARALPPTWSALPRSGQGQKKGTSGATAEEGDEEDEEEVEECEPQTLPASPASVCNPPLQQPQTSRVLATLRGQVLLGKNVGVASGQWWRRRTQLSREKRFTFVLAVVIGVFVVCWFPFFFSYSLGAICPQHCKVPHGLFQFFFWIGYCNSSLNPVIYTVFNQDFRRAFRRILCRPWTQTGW
T2 sequence (P22909 whole entry): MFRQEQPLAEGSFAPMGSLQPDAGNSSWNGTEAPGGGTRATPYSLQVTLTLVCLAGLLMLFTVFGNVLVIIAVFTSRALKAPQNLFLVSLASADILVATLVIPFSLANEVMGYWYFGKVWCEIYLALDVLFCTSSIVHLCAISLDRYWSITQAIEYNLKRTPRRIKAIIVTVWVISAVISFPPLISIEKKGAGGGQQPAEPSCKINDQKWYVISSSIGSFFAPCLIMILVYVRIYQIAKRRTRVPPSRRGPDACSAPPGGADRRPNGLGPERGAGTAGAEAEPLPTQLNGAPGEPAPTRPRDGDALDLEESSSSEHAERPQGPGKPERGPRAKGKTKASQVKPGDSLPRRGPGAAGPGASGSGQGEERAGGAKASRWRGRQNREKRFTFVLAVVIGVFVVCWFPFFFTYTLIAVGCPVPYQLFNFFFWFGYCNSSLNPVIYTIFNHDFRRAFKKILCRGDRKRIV
Nature of the data set: Displacement of [3H]-rauwolscine from adrenergic alpha2 receptor in rat cerebral cortex homogenates after 60 mins by liquid scintillation counting. Format: tissue-based. A general note: In a radioligand displacement assay an active substance lowers the binding of a labelled ligand.

Data set [3] addresses D(2) dopamine receptor (Rattus norvegicus, UniProt P61169). Put plainly: Displacement of [3H]spiperone from dopaminergic D2 receptor in rat striatum homogenates after 60 mins by liquid scintillation counting.
The target in data set [4] is 5-hydroxytryptamine receptor 2A (Rattus norvegicus, UniProt P14842). Nature of the data set: Displacement of [3H]ketanserine from 5-HT2A receptor in rat cerebral cortex homogenates after 60 mins by liquid scintillation counting. The format is tissue-based.
Data set [5] can be described thus: Acute toxicity in Sprague-Dawley rat. The settings on record: in vivo. Format: organism-based.

Chain of 5-hydroxytryptamine receptor 2A (P14842 whole entry): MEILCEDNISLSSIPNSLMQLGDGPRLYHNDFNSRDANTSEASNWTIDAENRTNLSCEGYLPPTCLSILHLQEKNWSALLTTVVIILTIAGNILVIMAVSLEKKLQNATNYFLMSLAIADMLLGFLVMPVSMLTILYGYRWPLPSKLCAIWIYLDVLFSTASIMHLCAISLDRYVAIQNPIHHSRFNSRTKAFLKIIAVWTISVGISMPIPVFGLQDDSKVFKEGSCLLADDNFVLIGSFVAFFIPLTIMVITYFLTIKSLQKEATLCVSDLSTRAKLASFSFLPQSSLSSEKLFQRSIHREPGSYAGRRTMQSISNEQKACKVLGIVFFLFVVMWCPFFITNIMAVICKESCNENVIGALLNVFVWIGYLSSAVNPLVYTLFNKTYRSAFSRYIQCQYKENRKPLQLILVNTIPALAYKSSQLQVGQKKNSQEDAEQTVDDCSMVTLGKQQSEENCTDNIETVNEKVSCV
Chain of D(2) dopamine receptor (P61169 whole entry): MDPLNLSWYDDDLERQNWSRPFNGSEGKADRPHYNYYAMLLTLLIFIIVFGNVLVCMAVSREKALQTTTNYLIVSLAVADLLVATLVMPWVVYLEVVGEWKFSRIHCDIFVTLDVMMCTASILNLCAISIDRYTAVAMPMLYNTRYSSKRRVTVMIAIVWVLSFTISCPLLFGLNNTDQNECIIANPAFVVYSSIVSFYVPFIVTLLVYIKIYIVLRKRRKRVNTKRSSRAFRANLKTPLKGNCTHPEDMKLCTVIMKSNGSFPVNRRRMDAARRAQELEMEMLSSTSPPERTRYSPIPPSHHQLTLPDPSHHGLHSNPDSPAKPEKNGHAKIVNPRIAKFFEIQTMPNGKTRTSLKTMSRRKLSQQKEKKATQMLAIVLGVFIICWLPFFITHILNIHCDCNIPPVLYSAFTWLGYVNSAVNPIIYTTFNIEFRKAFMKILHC

The Ki is the dissociation constant of the complex between target and ligand, obtained from inhibition or displacement. A lower Ki goes with a stronger hold on the target. As usually defined, the LD50 is the dose at which mortality reaches 50%. A lower LD50 goes with greater toxicity. For `Fc1ccc2c(C3CCN(CCCOc4ccc(-c5nc6ccccc6o5)cc4)CC3)noc2c1`, the Ki in data set [1] was found to be 83.5 nM; in data set [2], 153 nM; in data set [3], 22.1 nM; in data set [4], 8.3 nM. The LD50 in data set [5] was over 2000 mg/kg.

For `Fc1ccc2c(C3CCN(CCCOc4ccc(Cc5nc6ccccc6o5)cc4)CC3)noc2c1`, the Ki in data set [1] was found to be 21.3 nM; in data set [2], 16.3 nM; in data set [3] it was 10.6 nM; in data set [4], 2.7 nM. In data set [5], this compound came in with a 50% lethal dose (LD50) of over 2000 mg/kg.
